Results reported in patent publication US20250034098A1, “CRYSTALLINE SUBSTITUTED PYRAZINES AS PGI2 RECEPTOR AGONISTS” (NIPPON SHINYAKU CO., LTD., priority 2017, published 2025).

Legend:
[1] = Stability test of crystal forms of Compound B (Test Example 1); assay type: physicochemical; settings: for thermodynamic stability of the crystal form: Test Example 1, storage at 90° C.; for crystal form transformation on storage: storage at 90° C.; for Crystal form after 14 days: stored at 90° C.
Experimental: Different crystal forms of Compound B were placed in glass bottles, respectively, and the glass bottles were hermetically sealed and stored at 90° C. Samples were taken out after 1 day, 5 days, and 14 days, and dissolved in methanol at a concentration of 1 mg/mL to determine related substances by HPLC. With respect to the crystals after 14 days, the crystal form was checked.

[2] = target: PGI2 receptor (Homo sapiens, UniProt P43119); settings: cited from earlier work
[3] = Solvent suspending test of form-I crystal in different solvents (Test Example 2); assay type: physicochemical; settings: for Crystal form after 30 minutes at room temperature: stirring
Experimental: The form-I crystal of the present invention was mixed with different solvents, and stirring was performed at room temperature for 30 minutes. The formed crystals were obtained by filtration, and the crystal forms were determined.

[4] = 90° C., after 1 day, hermetically sealed glass bottle
[5] = 90° C., after 5 days, hermetically sealed glass bottle
[6] = 90° C., after 14 days, hermetically sealed glass bottle
[7] = hermetically sealed glass bottle

PGI2 receptor, sequence (P43119 whole entry, species assumed): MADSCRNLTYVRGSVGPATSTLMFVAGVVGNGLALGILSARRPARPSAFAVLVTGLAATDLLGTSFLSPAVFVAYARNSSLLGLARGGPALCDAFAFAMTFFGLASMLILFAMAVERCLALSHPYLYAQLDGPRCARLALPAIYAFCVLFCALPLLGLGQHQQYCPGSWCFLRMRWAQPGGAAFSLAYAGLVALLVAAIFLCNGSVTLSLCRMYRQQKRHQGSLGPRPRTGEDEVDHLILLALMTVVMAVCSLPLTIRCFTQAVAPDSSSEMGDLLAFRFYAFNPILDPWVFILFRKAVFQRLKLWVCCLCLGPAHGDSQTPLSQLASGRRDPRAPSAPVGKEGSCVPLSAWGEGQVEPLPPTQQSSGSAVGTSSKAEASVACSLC

## CC(C)N(CCCCOCC(=O)O)c1cnc(-c2ccccc2)c(-c2ccccc2)n1 [Form-III, 2-{4-[N-(5,6-diphenylpyrazin-2-yl)-N-isopropylamino]butyloxy}acetic acid]
[1]; [4]
  Appearance: No change
  HPLC area (%): 99.9%
[1]; [5]
  Appearance: No change
  HPLC area (%): 99.9%
[1]; [6]
  Appearance: No change
  HPLC area (%): 99.7%
[1]; Before storage
  Appearance: Yellow crystal
  HPLC area (%): 99.9%
[1]; listed as form-III crystal
  thermodynamic stability of the crystal form: thermodynamically unstable
[1]
  crystal form transformation on storage: gradually transformed into the form-II
[1]; [7]
  Crystal form after 14 days: Form-II

## CC(C)N(CCCCOCC(=O)O)c1cnc(-c2ccccc2)c(-c2ccccc2)n1 [Compound B, 2-{4-[N-(5,6-diphenylpyrazin-2-yl)-N-isopropylamino]butyloxy}acetic acid]
[2]
  PGI2 receptor agonistic effect: excellent

## CC(C)N(CCCCOCC(=O)O)c1cnc(-c2ccccc2)c(-c2ccccc2)n1 [Form-II, 2-{4-[N-(5,6-diphenylpyrazin-2-yl)-N-isopropylamino]butyloxy}acetic acid]
[3]; various solvents at room temperature
  thermodynamic stability of the crystal form when suspended: thermodynamically stable
[1]; [4]
  Appearance: No change
  HPLC area (%): 100%
[1]; [5]
  Appearance: No change
  HPLC area (%): 100%
[1]; [6]
  Appearance: No change
  HPLC area (%): 99.9%
[1]; Before storage
  Appearance: Yellow crystal
  HPLC area (%): 100%
[1]
  thermodynamic stability of the crystal form: thermodynamically stable
[1]; listed as form-II crystal
  thermodynamic stability of the crystal form: thermodynamically more stable
[1]; [7]
  Crystal form after 14 days: Form-II

## CC(C)N(CCCCOCC(=O)O)c1cnc(-c2ccccc2)c(-c2ccccc2)n1 [Form-I, 2-{4-[N-(5,6-diphenylpyrazin-2-yl)-N-isopropylamino]butyloxy}acetic acid]
[3]; all the solvents, room temperature
  crystal form transformation when suspended: partially transformed into the form-II crystal of the present invention
[3]; solvent 2-propanol
  Crystal form after 30 minutes at room temperature: Form-I + Form-II (1:10)
[3]; solvent cyclohexane
  Crystal form after 30 minutes at room temperature: Form-I + Form-II (1:1)
[3]; solvent toluene
  Crystal form after 30 minutes at room temperature: Form-I + Form-II (10:1)
[3]; solvent water
  Crystal form after 30 minutes at room temperature: Form-I + Form-II (10:1)
[1]; [4]
  Appearance: No change
  HPLC area (%): 99.8%
[1]; [5]
  Appearance: No change
  HPLC area (%): 99.8%
[1]; [6]
  Appearance: No change
  HPLC area (%): 99.6%
[1]; Before storage
  Appearance: White crystal
  HPLC area (%): 99.8%
[1]; listed as form-I crystal
  thermodynamic stability of the crystal form: thermodynamically more stable
[1]
  crystal form transformation on storage: gradually transformed into the form-II
[1]; [7]
  Crystal form after 14 days: Form-I + Form-II
